From US9498507B2, “Antiviral composition” (Piramal Enterprises Limited, priority 2011, dated 2016)

Columns and labels:
[1] = tested on: HSV-1; assay: Primary antiviral screening, CPE inhibition assay (crystal violet staining method); format: cell-based; conditions: Human alphaherpesvirus 1
Method: (§1) The assay was done as reported in Indian J. Med. Res., 2004, 120:24-29 incorporated herein by reference for its procedure.
(§2) Vero cells (obtained in step 1 of Example 8) were propagated at a density of 1×10^4 cells/well in 96 well plate and incubated at 37° C. in a CO2 incubator for 24 hours to form a monolayer. Samples 1 to 26 were tested by adding at 50 μg/mL and 100 μg/mL concentration (DMSO stock of 20 mg/mL of the extract was diluted to 50 μg/mL and 100 μg/mL with DMEM containing 2% FBS) in a final culture volume of 200 μL/well. Appropriate controls were included such as Vero cells alone (cell control), Vero cells with virus (virus control) and Vero cells with virus and the standard compound, acyclovir (a commercially available antiviral drug). Acyclovir was tested at the following concentrations (DMSO stock of 20 mg/mL of acyclovir was diluted to 100 μg/mL with DMEM containing 2% FBS): 12.5 μg/mL, 6.25 μg/mL, 3.125 μg/mL, 1.5 μg/mL and 0.78 μg/mL against HSV-1 and 25 μg/mL, 12.5 μg/mL, 6.25 μg/mL and 3.125 μg/mL against HSV-2. The extracts to be assayed were added 1 hour prior to infection to provide maximum sensitivity and give a tentative idea of potential inhibitors of early replicative steps such as adsorption or penetration. After one hour, cells were infected with 100 μL of appropriate viral dose per well [HSV-1 at a multiplicity of infection (MOI) of 10^4 TCID50 or HSV-2 at a MOI of 10^3 TCID50] using viral stock obtained in step 2 of Example 8. The infected cells were incubated with maintenance medium (DMEM with 2% FBS) for another 48 to 50 hours. […] The staining solution was aspirated out and the plates rinsed using distilled water until all excess stain was washed away. The plates were allowed to dry for 24 hours. CPE was evaluated visually, after staining the plaques, and microscopically and graded according to the percentage of CPE inhibition as compared to controls.

[2] = tested on: HSV-2; assay: as above; format: cell-based; conditions: Human alphaherpesvirus 2
Method: as §1, §2

[3] = tested on: HSV-1; assay: Effect on replication at different time points post-infection (MTT); format: cell-based
Method: (§3) These stages occur at different time points in the virus life cycle spanning from 1 hour—initiation of adsorption to 24 hours—completion of one HSV replication cycle. Adsorption stage of the virus life cycle is the initial attachment of the herpes virus to host cells which involves interaction of gC and gD (conserved glycoproteins) on the virus with cell surface receptors such as heparin sulfate. Attachment stage of the virus life cycle is the stable attachment which allows close association of virus with the cell. The stage of the virus life cycle subsequent to the adsorption and attachment stages is known as the post infection stage. Vero cells were seeded onto 96-well flat-bottomed plates at a density of 2.2×10^4 cells/well in 10% FBS-DMEM growth medium. After 20-24 hours, the confluent monolayers were infected with 100 μL/well of 1:10^4 virus dilution (HSV-1 clinical strain) (TCID50 5.88×10^6/mL) or 1:10^3 dilution of HSV-2 (TCID50 2.43×10^6/mL) and plates incubated for 1 hour at 37° C. and 5% CO2. […] Maintenance medium was added to the wells for virus control (virus dilution+maintenance medium) and cell control (maintenance medium only). The plates were further incubated for 48-50 hours at 37° C. […] The plate was left in the 37° C., 5% CO2 incubator overnight. After incubation, the plate cover was removed and absorbance measured in each well at 570 nm in the microplate plate reader (BIO-TEK, Synergy HT).

[4] = tested on: HSV-2; assay: as above; format: cell-based
Method: as §3

[5] = tested on: HSV-1; assay: Antiviral activity prior to infection (pre-treatment plaque assay); format: cell-based; conditions: 3.125-400 μg/mL
Method: (§4) In order for herpes viruses to enter a target cell, they must fuse their lipid membrane envelope with the lipid membrane of the cell. This complex viral entry mechanism is mediated by at least three conserved glycoprotein's (gC, gB and gD) and their ability to bind cell surface receptors such as nectins and herpes virus entry mediator (HVEM) (Cell. Mol. Life Sci, 2008, 65, 1653-1668). […] Vero cells were seeded onto 24 well plates at a density of 1.8×10^5 cells/well. […] Following incubation, the plates were washed with 0.85% saline and stained with 0.13% crystal violet.

[6] = tested on: HSV-2; assay: as above; format: cell-based; conditions: 3.125-400 μg/mL
Method: as §4

[7] = tested on: HSV-1; assay: Virus penetration assay; format: cell-based; conditions: compared to sample 23 of Example 4
Method: (§5) Penetration of HSV into host cells may be defined as a step subsequent to initial binding to the host cell surface which triggers fusion of the virion envelope with the plasma membrane. This requires multiple interactions, in a cascade like manner, involving various glycoproteins (gB, gD and gH/gL) and cell surface components (Cell. Mol. Life Sci, 2008, 65, 1653-1668). […] Vero cells were seeded onto 24 well plates at a density of 1.8×10^5 cells/well. […] The cells were incubated at 4° C. for 2 hours to allow viral attachment. […] The plates were then washed with 0.85% saline and stained with 0.13% crystal violet.

[8] = tested on: HSV-2; assay: Virus penetration assay; format: cell-based; conditions: compared to sample 23 of Example 4
Method: as §5

[9] = tested on: HSV-1; assay: Virucidal activity assay; format: cell-based; conditions: 25-400 μg/mL
From the text: (§6) In the virucidal assay, the continuous presence of an antiviral drug may be frequently required for blocking infectivity of viral particle for cultured cells and dilution of the virus-extract complexes may dissociate, releasing infectious virus (Antiviral research, 2010, 86, 196-203). If a sample is unable to reduce virus infectivity at the IC50 or other potent concentrations then the antiviral activity is not related to its virucidal ability. […] HSV-1 virus suspension at a concentration of approximately 10^10 pfu/mL and HSV-2 at 10^9 pfu/ml were prepared. […] These admixtures were then diluted […] (1:100) to yield a final concentration range of 0.25-4 μg/ml corresponding to 25-400 μg/ml.

[10] = tested on: HSV-2; assay: Virucidal activity assay; format: cell-based; conditions: 25-400 μg/mL
From the text: as §6

[11] = tested on: HSV-1; assay: Mouse HSV-1 zosteriform spread infection model; format: in vivo, Balb/c female mice; conditions: acyclovir 225 mg/kg/day topical
From the text: The assay was done as reported in Antimicrobial Agents and Chemotherapy, June 2002, p. 1766-1772, incorporated herein by reference for its procedure.
Balb/c female mice of 6 to 8 weeks which are non-pregnant and nulliparous were used for the study. All the animals were shaved on right mid dorsal area using electric hair clipper and few horizontal scarification was done on shaved area using sterile 26 gauge needle, just before viral challenge.
Prior to viral challenge, the scarified area of each mouse was cleaned with a cotton swab soaked in 70% alcohol followed by clearing the area using cotton swab soaked in sterile DMEM. Mice were then infected onto the scarified area with HSV-1 virus containing 8.27×10^3 pfu/animal. […]
The following formulations, as described in Example 6, were evaluated: • (a) Formulation IA • (b) Formulation IB • (c) Formulation IC
Formulation IA, Formulation IB and Formulation IC were applied topically thrice daily for a 5 day period. 15 mg of Formulation IA correspond to 225 mg/kg dose; 15 mg of Formulation IB correspond to 450 mg/kg dose; 15 mg of Formulation IC correspond to 675 mg/kg dose and 25 mg of Formulation IB correspond to 750 mg/kg dose evaluated in the animals.
The animals were assessed daily for morbidity, mortality and the site of infection for a period of 21 days post infection. […]

[12] = tested on: HSV-2; assay: Mouse vaginal model of HSV-2 infection; format: in vivo, Balb/c female mice; conditions: acyclovir 225 mg/kg/day intravaginal
Method: The assay was done as reported in Antiviral Research, 2006, 69:77-85, incorporated herein by reference for its procedure.
Balb/c female mice of 6 to 8 weeks, non-pregnant and nulliparous were used for the study. Female BALB/c mice were used for vaginal inoculation with HSV-2. Five days prior to intravaginal (IVAG) challenge, mice were injected subcutaneously (sc) with 2 mg of progesterone (Depo-Provera®; Pfizer, Belgium) in the upper back, using a 29-gauge needle. On the day of challenge, mice were inoculated intravaginally with 1.14×10^5 pfu of HSV-2. IVAG administrations of virus were via a micropipette in a total volume of 20 μL DMEM. Animals received Formulation IA, Formulation IB, Formulation IC/acyclovir/placebo intravaginally by topical administration 30 minutes post infection. […]
The following formulations, as described in Example 6, have been evaluated: • (a) Formulation IA • (b) Formulation IB • (c) Formulation IC
Formulation IA, Formulation IB and Formulation IC were applied topically thrice daily for a 5 day period. 15 mg of Formulation IA correspond to 225 mg/kg dose; 15 mg of Formulation IB correspond to 450 mg/kg dose and 15 mg of Formulation IC correspond to 675 mg/kg dose evaluated in the animals.
The animals were assessed daily for extravaginal disease signs and survival for a period of 21 days post infection. […]

Nc1nc2c(ncn2COCCO)c(=O)[nH]1 [Acyclovir]
inhibition at 0.78 µg/mL ([1]; 0.78 μg/mL): 11 to 25% | inhibition at 1.5 µg/mL ([1]; 1.5 μg/mL): 26 to 50% | inhibition at 3.125 µg/mL ([1]; 3.125 μg/mL): 51 to 75% | inhibition at 6.25 µg/mL ([1]; 6.25 μg/mL): 51 to 75% | inhibition at 12.5 µg/mL ([1]; 12.5 μg/mL): 76 to 100% | inhibition at 3.125 µg/mL ([2]; 3.125 μg/mL): 11 to 25% | inhibition at 6.25 µg/mL ([2]; 6.25 μg/mL): 26 to 50% | inhibition at 12.5 µg/mL ([2]; 12.5 μg/mL): 51 to 75% | inhibition at 25 µg/mL ([2]; 25 μg/mL): 76 to 100% | antiviral effect ([3]; 3.125-200 μg/mL, 0-7 hours): potent antiviral effect | antiviral effect ([3]; 16-24 hours): about 17% | antiviral effect ([4]; 3.125-200 μg/mL, 0-7 hours): potent antiviral effect | antiviral effect ([4]; 16-24 hours p.i.): absent | inhibitory effect against HSV-1 prior to infection [5]: 10-40% | inhibitory effect against HSV-2 prior to infection [6]: 10-20% | inhibitory activity (penetration) [7]: weak to moderate inhibitory activity | inhibitory activity (penetration) [8]: weak to moderate inhibitory activity | virucidal effect against HSV-1 [9]: 0-32% | virucidal effect against HSV-2 [10]: 11-38% | mortality [11]: None of the mice died | recovery of all mice from zosteriform lesions [11]: ≤ 7 day, post infection | mortality [12]: None of the mice died | signs of extravaginal disease [12]: None of the mice showed signs of extravaginal disease
